In PubChem BioAssay (NCI):
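Interpolation was linear, between the two tested concentrations surrounding the appropriate level; five concentrations were tested over 48 hours in 96-well plates. GI50 is the concentration that inhibits growth by half. TGI marks complete inhibition of growth.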

What follows are compounds tested on COLO 205 colon (assay: NCI tumour cell line growth inhibition, 48 h).

| Compound | TGI | GI50 |
| --- | --- | --- |
| N#CC1(C2SCCS2=O)C2=C(C(=O)c3ccccc3C2=O)N2CCCC21 (centres undefined) | 5.71 µM | – |
| Cc1n(Cc2ccc3ccccc3c2)cc[n+]1Cc1ccc2ccccc2c1 | 1.59 µM | 0.369 µM |
| O=C1/C(=C\c2cccn2Cc2ccccc2)c2ccccc2N1c1c(Cl)cccc1Cl | 6.26 µM | 1.36 µM |
| Cc1sc2nc(NCCc3c[nH]c4ccc(Cl)cc34)[nH]c(=O)c2c1C | 3.77 µM | 1.74 µM |
| COc1cc(/C=C2\C(=O)Nc3ccc(F)cc32)cc(OC)c1OC | > 100 µM | 62.7 µM |
| O=C(O)c1c(-c2nccc3ccccc23)[nH]c(-c2ccccc2)c1S(=O)(=O)O | > 100 µM | – |
| O=C(O)c1cc(O)c2c(c1)C(C1c3cc(C(=O)O)cc(O)c3C(=O)c3c(OC4OC(CO)C(O)C(O)C4O)cccc31)c1cccc(OC3OC(CO)C(O)C(O)C3O)c1C2=O (centres undefined) | > 100 µM | > 100 µM |
| O=C(CN(C1CCCCC1)C1CCCCC1)Nc1ccc(S(=O)(=O)c2ccc(NC(=O)CN(C3CCCCC3)C3CCCCC3)cc2)cc1 | 0.841 µM | 0.28 µM |
| O=c1[nH]c2cc(Cl)ccc2n1C1CCN(CCCC(c2ccc(F)cc2)c2ccc(F)cc2)CC1 | 2.6 µM | 1.23 µM |
| Cc1c[n+](Cc2ccc3ccccc3c2)cn1Cc1ccc2ccccc2c1 | 2.62 µM | 1.12 µM |
| Nc1nc(Br)nc2c1ncn2C1CC(O)C(CO)O1 (centres undefined) | > 100 µM | 13.7 µM |
| CCOC(=O)N1CCN(C(=O)c2ccc(C(F)(F)F)nc2Nc2cc(Cl)ccc2C)CC1 | 51.6 µM | 18.9 µM |
| Cc1ccc(Nc2nc(N)c(C(=O)c3ccc(C#N)cc3)s2)cc1 | 6.64 µM | 0.279 µM |
| CN1CCc2c(Sc3ccc(C(=O)NO)cc3)c3ccccc3n2C1 | 4.52 µM | 1.92 µM |
| COc1ccc(CNc2c3ccccc3nc3ccccc23)cc1OC | 3.82 µM | 1.32 µM |
| CN(C)c1ccc2nc3ccc(=O)cc-3sc2c1 | 3.81 µM | 0.38 µM |
| CC(=O)c1c(CBr)n([O-])c2ccccc2[n+]1=O | 3.63 µM | 1.81 µM |
| O=C(Nc1ccc(Cl)cc1F)c1cc(Br)ccc1O | 21.5 µM | 7.65 µM |
| COc1ccc(-n2cc(-c3ccc(Cl)c(Cl)c3)nc2SCc2cccc(C#N)c2)cc1 | > 100 µM | 51.7 µM |

The compounds below were run on HCT-116 colon (assay: NCI tumour cell line growth inhibition, 48 h).

| Compound | TGI | GI50 |
| --- | --- | --- |
| N#CC1(C2SCCS2=O)C2=C(C(=O)c3ccccc3C2=O)N2CCCC21 (centres undefined) | 5.56 µM | – |
| Cc1n(Cc2ccc3ccccc3c2)cc[n+]1Cc1ccc2ccccc2c1 | 4.4 µM | 1.07 µM |
| O=C1/C(=C\c2cccn2Cc2ccccc2)c2ccccc2N1c1c(Cl)cccc1Cl | > 100 µM | 7.36 µM |
| Cc1sc2nc(NCCc3c[nH]c4ccc(Cl)cc34)[nH]c(=O)c2c1C | 7.07 µM | 1.84 µM |
| COc1cc(/C=C2\C(=O)Nc3ccc(F)cc32)cc(OC)c1OC | > 100 µM | 21.2 µM |
| O=C(O)c1c(-c2nccc3ccccc23)[nH]c(-c2ccccc2)c1S(=O)(=O)O | > 100 µM | – |
| O=C(O)c1cc(O)c2c(c1)C(C1c3cc(C(=O)O)cc(O)c3C(=O)c3c(OC4OC(CO)C(O)C(O)C4O)cccc31)c1cccc(OC3OC(CO)C(O)C(O)C3O)c1C2=O (centres undefined) | > 100 µM | > 100 µM |
| O=C(CN(C1CCCCC1)C1CCCCC1)Nc1ccc(S(=O)(=O)c2ccc(NC(=O)CN(C3CCCCC3)C3CCCCC3)cc2)cc1 | 0.396 µM | 0.158 µM |
| O=c1[nH]c2cc(Cl)ccc2n1C1CCN(CCCC(c2ccc(F)cc2)c2ccc(F)cc2)CC1 | 2.87 µM | 1.46 µM |
| Cc1c[n+](Cc2ccc3ccccc3c2)cn1Cc1ccc2ccccc2c1 | 2.7 µM | 1.39 µM |
| Nc1nc(Br)nc2c1ncn2C1CC(O)C(CO)O1 (centres undefined) | > 100 µM | 2.76 µM |
| CCOC(=O)N1CCN(C(=O)c2ccc(C(F)(F)F)nc2Nc2cc(Cl)ccc2C)CC1 | 30.1 µM | 12.3 µM |
| Cc1ccc(Nc2nc(N)c(C(=O)c3ccc(C#N)cc3)s2)cc1 | 6.74 µM | 0.241 µM |
| CN1CCc2c(Sc3ccc(C(=O)NO)cc3)c3ccccc3n2C1 | 3.97 µM | 1.7 µM |
| COc1ccc(CNc2c3ccccc3nc3ccccc23)cc1OC | 10.9 µM | 0.944 µM |
| CN(C)c1ccc2nc3ccc(=O)cc-3sc2c1 | 8.47 µM | 1.16 µM |
| CC(=O)c1c(CBr)n([O-])c2ccccc2[n+]1=O | 2.89 µM | 1.36 µM |
| O=C(Nc1ccc(Cl)cc1F)c1cc(Br)ccc1O | 3.19 µM | 0.805 µM |
| COc1ccc(-n2cc(-c3ccc(Cl)c(Cl)c3)nc2SCc2cccc(C#N)c2)cc1 | > 100 µM | 4.55 µM |

What follows are compounds tested on HCT-15 colon (assay: NCI tumour cell line growth inhibition, 48 h).

| Compound | TGI | GI50 |
| --- | --- | --- |
| N#CC1(C2SCCS2=O)C2=C(C(=O)c3ccccc3C2=O)N2CCCC21 (centres undefined) | 6.63 µM | – |
| Cc1n(Cc2ccc3ccccc3c2)cc[n+]1Cc1ccc2ccccc2c1 | 25.1 µM | 11.3 µM |
| O=C1/C(=C\c2cccn2Cc2ccccc2)c2ccccc2N1c1c(Cl)cccc1Cl | > 100 µM | 0.885 µM |
| Cc1sc2nc(NCCc3c[nH]c4ccc(Cl)cc34)[nH]c(=O)c2c1C | 11.2 µM | 1.52 µM |
| COc1cc(/C=C2\C(=O)Nc3ccc(F)cc32)cc(OC)c1OC | > 100 µM | 14.9 µM |
| O=C(O)c1c(-c2nccc3ccccc23)[nH]c(-c2ccccc2)c1S(=O)(=O)O | > 100 µM | – |
| O=C(O)c1cc(O)c2c(c1)C(C1c3cc(C(=O)O)cc(O)c3C(=O)c3c(OC4OC(CO)C(O)C(O)C4O)cccc31)c1cccc(OC3OC(CO)C(O)C(O)C3O)c1C2=O (centres undefined) | > 100 µM | > 100 µM |
| O=C(CN(C1CCCCC1)C1CCCCC1)Nc1ccc(S(=O)(=O)c2ccc(NC(=O)CN(C3CCCCC3)C3CCCCC3)cc2)cc1 | 0.568 µM | 0.181 µM |
| O=c1[nH]c2cc(Cl)ccc2n1C1CCN(CCCC(c2ccc(F)cc2)c2ccc(F)cc2)CC1 | 2.76 µM | 1.45 µM |
| Cc1c[n+](Cc2ccc3ccccc3c2)cn1Cc1ccc2ccccc2c1 | 24.2 µM | 10.3 µM |
| Nc1nc(Br)nc2c1ncn2C1CC(O)C(CO)O1 (centres undefined) | > 100 µM | > 63.9 µM |
| CCOC(=O)N1CCN(C(=O)c2ccc(C(F)(F)F)nc2Nc2cc(Cl)ccc2C)CC1 | > 100 µM | 23.1 µM |
| Cc1ccc(Nc2nc(N)c(C(=O)c3ccc(C#N)cc3)s2)cc1 | > 100 µM | 0.202 µM |
| CN1CCc2c(Sc3ccc(C(=O)NO)cc3)c3ccccc3n2C1 | 13.4 µM | 3.62 µM |
| COc1ccc(CNc2c3ccccc3nc3ccccc23)cc1OC | 7.17 µM | 2.2 µM |
| CN(C)c1ccc2nc3ccc(=O)cc-3sc2c1 | > 86 µM | 0.322 µM |
| CC(=O)c1c(CBr)n([O-])c2ccccc2[n+]1=O | 27.7 µM | 13.6 µM |
| O=C(Nc1ccc(Cl)cc1F)c1cc(Br)ccc1O | > 20.8 µM | 1.06 µM |
| COc1ccc(-n2cc(-c3ccc(Cl)c(Cl)c3)nc2SCc2cccc(C#N)c2)cc1 | > 100 µM | 42.8 µM |

The compounds below were run on HL-60(TB) leukemia (assay: NCI tumour cell line growth inhibition, 48 h).

| Compound | TGI | GI50 |
| --- | --- | --- |
| N#CC1(C2SCCS2=O)C2=C(C(=O)c3ccccc3C2=O)N2CCCC21 (centres undefined) | 6.79 µM | – |
| Cc1n(Cc2ccc3ccccc3c2)cc[n+]1Cc1ccc2ccccc2c1 | 2.01 µM | 0.427 µM |
| O=C1/C(=C\c2cccn2Cc2ccccc2)c2ccccc2N1c1c(Cl)cccc1Cl | > 100 µM | > 100 µM |
| Cc1sc2nc(NCCc3c[nH]c4ccc(Cl)cc34)[nH]c(=O)c2c1C | 5.91 µM | 2.34 µM |
| COc1cc(/C=C2\C(=O)Nc3ccc(F)cc32)cc(OC)c1OC | > 100 µM | 8.39 µM |
| O=C(O)c1c(-c2nccc3ccccc23)[nH]c(-c2ccccc2)c1S(=O)(=O)O | > 100 µM | – |
| O=C(O)c1cc(O)c2c(c1)C(C1c3cc(C(=O)O)cc(O)c3C(=O)c3c(OC4OC(CO)C(O)C(O)C4O)cccc31)c1cccc(OC3OC(CO)C(O)C(O)C3O)c1C2=O (centres undefined) | > 100 µM | > 100 µM |
| O=C(CN(C1CCCCC1)C1CCCCC1)Nc1ccc(S(=O)(=O)c2ccc(NC(=O)CN(C3CCCCC3)C3CCCCC3)cc2)cc1 | 3.23 µM | 1.02 µM |
| O=c1[nH]c2cc(Cl)ccc2n1C1CCN(CCCC(c2ccc(F)cc2)c2ccc(F)cc2)CC1 | 14.7 µM | 2.97 µM |
| Cc1c[n+](Cc2ccc3ccccc3c2)cn1Cc1ccc2ccccc2c1 | 2.34 µM | 0.514 µM |
| Nc1nc(Br)nc2c1ncn2C1CC(O)C(CO)O1 (centres undefined) | – | 0.0835 µM |
| CCOC(=O)N1CCN(C(=O)c2ccc(C(F)(F)F)nc2Nc2cc(Cl)ccc2C)CC1 | 38 µM | 12.1 µM |
| Cc1ccc(Nc2nc(N)c(C(=O)c3ccc(C#N)cc3)s2)cc1 | > 61.7 µM | 0.288 µM |
| CN1CCc2c(Sc3ccc(C(=O)NO)cc3)c3ccccc3n2C1 | 8.09 µM | 2.95 µM |
| COc1ccc(CNc2c3ccccc3nc3ccccc23)cc1OC | 10 µM | 2.96 µM |
| CN(C)c1ccc2nc3ccc(=O)cc-3sc2c1 | 3.94 µM | 0.77 µM |
| CC(=O)c1c(CBr)n([O-])c2ccccc2[n+]1=O | 22.6 µM | 5.49 µM |
| O=C(Nc1ccc(Cl)cc1F)c1cc(Br)ccc1O | 3.77 µM | 0.919 µM |
| COc1ccc(-n2cc(-c3ccc(Cl)c(Cl)c3)nc2SCc2cccc(C#N)c2)cc1 | > 100 µM | > 100 µM |

What follows are compounds tested on M14 melanoma (assay: NCI tumour cell line growth inhibition, 48 h).

| Compound | TGI | GI50 |
| --- | --- | --- |
| N#CC1(C2SCCS2=O)C2=C(C(=O)c3ccccc3C2=O)N2CCCC21 (centres undefined) | 2.77 µM | – |
| Cc1n(Cc2ccc3ccccc3c2)cc[n+]1Cc1ccc2ccccc2c1 | 3.46 µM | 1.12 µM |
| O=C1/C(=C\c2cccn2Cc2ccccc2)c2ccccc2N1c1c(Cl)cccc1Cl | > 100 µM | > 100 µM |
| Cc1sc2nc(NCCc3c[nH]c4ccc(Cl)cc34)[nH]c(=O)c2c1C | 9.49 µM | 2.4 µM |
| COc1cc(/C=C2\C(=O)Nc3ccc(F)cc32)cc(OC)c1OC | > 100 µM | 63.5 µM |
| O=C(O)c1c(-c2nccc3ccccc23)[nH]c(-c2ccccc2)c1S(=O)(=O)O | > 100 µM | – |
| O=C(O)c1cc(O)c2c(c1)C(C1c3cc(C(=O)O)cc(O)c3C(=O)c3c(OC4OC(CO)C(O)C(O)C4O)cccc31)c1cccc(OC3OC(CO)C(O)C(O)C3O)c1C2=O (centres undefined) | > 100 µM | > 100 µM |
| O=C(CN(C1CCCCC1)C1CCCCC1)Nc1ccc(S(=O)(=O)c2ccc(NC(=O)CN(C3CCCCC3)C3CCCCC3)cc2)cc1 | 1.69 µM | 0.373 µM |
| O=c1[nH]c2cc(Cl)ccc2n1C1CCN(CCCC(c2ccc(F)cc2)c2ccc(F)cc2)CC1 | 3.05 µM | 1.55 µM |
| Cc1c[n+](Cc2ccc3ccccc3c2)cn1Cc1ccc2ccccc2c1 | 3.66 µM | 1.58 µM |
| Nc1nc(Br)nc2c1ncn2C1CC(O)C(CO)O1 (centres undefined) | 8.56 µM | 1.1 µM |
| CCOC(=O)N1CCN(C(=O)c2ccc(C(F)(F)F)nc2Nc2cc(Cl)ccc2C)CC1 | > 100 µM | 23.7 µM |
| Cc1ccc(Nc2nc(N)c(C(=O)c3ccc(C#N)cc3)s2)cc1 | > 100 µM | 0.308 µM |
| CN1CCc2c(Sc3ccc(C(=O)NO)cc3)c3ccccc3n2C1 | 4.53 µM | 1.81 µM |
| COc1ccc(CNc2c3ccccc3nc3ccccc23)cc1OC | 4.76 µM | 1.97 µM |
| CN(C)c1ccc2nc3ccc(=O)cc-3sc2c1 | 10.8 µM | 0.408 µM |
| CC(=O)c1c(CBr)n([O-])c2ccccc2[n+]1=O | 25.6 µM | 12.1 µM |
| O=C(Nc1ccc(Cl)cc1F)c1cc(Br)ccc1O | 3.75 µM | 0.751 µM |
| COc1ccc(-n2cc(-c3ccc(Cl)c(Cl)c3)nc2SCc2cccc(C#N)c2)cc1 | > 100 µM | 48.2 µM |
